Measurements from US20240208997A1, “CYCLIC BENZIMIDAZOLE DERIVATIVES AS CGAS INHIBITORS” (Boehringer Ingelheim International GmbH, priority 2022, published 2024).
pIC50: −log10 of the molar value. Read-outs that look alike come from different tables or passages of the source.

Legend:
[1] = test system: IFN induction in virus-stimulated THP1 cells; assay: Human cGAS cell assay, virus-stimulated THP1-Dual cells (THP1(vir) IC50); format: cell-based
Source text: (§1) 6.2 Method: Human cGAS Cell Assay and cGAMP Stimulated Counter Cell Assay (THP1(vir) IC50 and THP1(cGAMP) IC50)
THP1-Dual™ cells (InvivoGen #thpd-nfis) expressing IRF dependent Lucia luciferase reporter were used as basis for both assays. For the detection of cellular cGAS activity cells were stimulated by a baculovirus (pFastbac-1, Invitrogen, no coding insert) infection that delivers the cGAS enzyme stimulating double-stranded DNA (measurement of THP1(vir) IC50).
(§2) Pathway activity was monitored by measuring the Lucia luciferase activity induced by either DNA stimulated cGAS enzyme activity (measurement of THP1(vir) IC50) or by cGAMP directly (measurement of THP1(cGAMP) IC50, counter assay).
(§3) Compounds were delivered in 10 mM DMSO solution, serially diluted and transferred to the 384 well assay plate (Greiner #781201) using an Echo acoustic dispenser. Typically, 8 concentrations were used with the highest concentration at 10 μM in the final assay volume followed by ^˜1:5 dilution steps. DMSO concentration was set to 1% in the final assay volume. The 384 well assay plate contained […] (column 1-22), and DMSO in column 23 and 24.
(§4) Cells, cultivated according to manufacturer conditions, were harvested by centrifugation at 300 g/10 min and were then resuspended and diluted to 1.66E5 cells/ml in fresh cell culture medium (RPMI 1640 (Gibco #A10491-01), 10% FCS (Gibco #10500), 1× GlutaMax (Gibco #35050-061), 1× Pen/Strep solution (Gibco #15140-122), 100 μg/ml Normocin (InvivoGen #ant-nr), 100 μg/ml Zeocin (InvivoGen #ant-zn), 10 μg/ml Blasticidin S (Life Technologies #A11139-03)). The baculovirus solution was then added 1:200 (have varied according to virus batch) to the cells (measurement of THP1(vir) IC50).
(§5) 30 μL of the cell/virus-mix were added to each well of the compound plate from column 1-23 via MultiDrop Combi dispenser (5000 cells/well). In column 24, 30 μl/5000 cells/well without virus were added as a low control.
(§6) The plates were then incubated for 18 h at 37° C. in a humidified incubator.
(§7) Following that, 15 μL of QuantiLuc detection reagent (InvivoGen #rep-qlcg5) were added to each well using a MultiDrop Combi. Measurement was done immediately after the addition using an EnVision reader (US-luminescence read-mode).
(§8) Data Evaluation and Calculation:
(§9) For data evaluation and calculation, the measurement of the low control was set as 0% control and the measurement of the high control was set as 100% control. The IC50 values were calculated using the standard 4 parameter logistic regression formula. Calculation: [y=(a−d)/(1+(x/c)^b)+d], a=low value, d=high value; x=conc M; c=IC50 M; b=slope

[2] = test system: IFN induction in cGAMP-stimulated THP1 cells; assay: cGAMP stimulated counter cell assay in THP1-Dual cells (THP1(cGAMP) IC50); format: cell-based, human; conditions: Homo sapiens, read-out: THP1(cGAMP) IC50
Source text: as §1
For the counter assay, cells were stimulated by cGAMP (SigmaAldrich #SML1232) to activate the identical pathway independent and directly downstream of cGAS (measurement of THP1(cGAMP) IC50).
as §2, §3, §4, §5, §6, §7, §8, §9

cGAS [3] = target: T1, cGAS (Homo sapiens, UniProt Q8N884); conditions: page 65, Table 2 of WO 2022/174012; read-out: enzymatic IC50-value, group; cited from earlier work
T1 sequence (Q8N884 whole entry): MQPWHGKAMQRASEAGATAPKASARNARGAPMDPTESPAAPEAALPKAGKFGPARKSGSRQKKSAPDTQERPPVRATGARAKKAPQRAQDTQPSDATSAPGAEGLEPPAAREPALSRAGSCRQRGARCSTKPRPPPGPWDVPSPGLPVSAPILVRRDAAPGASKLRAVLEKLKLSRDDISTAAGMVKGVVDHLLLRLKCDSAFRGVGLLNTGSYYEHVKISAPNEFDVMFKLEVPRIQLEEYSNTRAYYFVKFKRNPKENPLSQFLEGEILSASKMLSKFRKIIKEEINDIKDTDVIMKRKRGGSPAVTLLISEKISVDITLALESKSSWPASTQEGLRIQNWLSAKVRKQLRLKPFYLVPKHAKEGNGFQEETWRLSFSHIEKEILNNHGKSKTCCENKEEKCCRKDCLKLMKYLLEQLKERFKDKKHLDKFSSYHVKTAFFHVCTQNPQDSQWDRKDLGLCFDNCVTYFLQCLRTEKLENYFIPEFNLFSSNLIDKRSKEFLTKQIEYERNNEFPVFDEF

THP-1 = conditions: page 67 and 68, Table 3 of WO 2022/174012; read-out: cellular IC50-value (IFNβ ELISA stimulated with THP-1), group; cited from earlier work
[4] = test system: IFN induction in virus-stimulated THP1 cells; conditions: Table 4; compounds of PCT/EP2022/062480 and PCT/EP2022/062496 and their methyl ester prodrugs; read-out: THP1(vir) IC50; cited from earlier work
[5] = test system: IFN induction in cGAMP-stimulated THP1 cells; conditions: Table 4; compounds of PCT/EP2022/062480 and PCT/EP2022/062496 and their methyl ester prodrugs; cited from earlier work
[6] = test system: IFN induction in dsDNA-stimulated human whole blood; conditions: Table 4; compounds of PCT/EP2022/062480 and PCT/EP2022/062496 and their methyl ester prodrugs; read-out: hWB IC50; cited from earlier work
cGAS [7] = target: T1, cGAS; parameters: HumancGAS (amino acid 1-522) with an N-terminal 6×-His-tag and SUMO-tag; 6xHis (N); SUMO (N); made in house; host or cells: E. coli BL21(DE3) pLysS; conditions: Table 4; compounds of PCT/EP2022/062480 and PCT/EP2022/062496 and their methyl ester prodrugs; read-out: hcGAS IC50; cited from earlier work
cGAS [8] = target: T1, cGAS; conditions: groups as on page 44/45 of WO 2020/142729; read-out: biochemical (in vitro) IC50-value, group; cited from earlier work
[9] = THP-1, Table 2, compounds of WO 2020/142729, read-out: THP1(vir) IC50
[10] = THP-1, Table 2, compounds of WO 2020/142729

Structure (SMILES)	pIC50 [4]	pIC50 [5]	pIC50 [6]	further results
Cc1nc(N2C[C@@H](CC(=O)Nc3ccc(-c4ccccc4)cc3)C[C@H]2C(=O)O)c2oc3ccccc3c2n1 [Compound 5, reference compound]				pIC50 ([1]; THP-1, Table 3, Compound No. 5 of WO 2022/174012, read-out: THP1(vir) IC50): < 5.00; pIC50 ([2]; THP-1, Table 3, Compound No. 5 of WO 2022/174012): < 5.00; pIC50 (cGAS [3]): 7.00 to 7.30; pIC50 (THP-1): > 6.00
CO[C@]1(c2cc(Cl)cnc2O[C@H]2C[C@@H](C(=O)O)N(c3nc(C(F)F)nc4c3oc3ccccc34)C2)CC(C)(C)S(=O)(=O)C[C@@H]1C [Ex. 1.05 of PCT/ EP2022/062496]	7.36	4.88	6.87	
C[C@@H]1N(c2cc(Br)cnc2OC2C[C@@H](C(=O)O)N(c3nc(C(F)(F)F)nc4c3oc3ccccc34)C2)CCOC12COC2 (some centres unmarked) [Ex. 1.10 of PCT/EP2022/062 480]	7.04	4.79	7.48	pIC50 (cGAS [7]): 8.30
C#Cc1cnc(O[C@H]2C[C@@H](C(=O)O)N(c3nc(C(F)(F)F)nc4c3oc3ccccc34)C2)c(N2CCOC3(COC3)[C@@H]2C)c1 [Ex. 1.12 of PCT/EP2022/062 480]	8.15	4.92	7.82	
C[C@H]1CS(=O)(=O)CC[C@]1(F)c1cc(Cl)cnc1O[C@H]1C[C@@H](C(=O)O)N(c2nc(C(F)F)nc3c2oc2ccccc23)C1 [Ex. 1.13 of PCT/ EP2022/062496]		4.65	8.22	
C#Cc1cnc(O[C@H]2C[C@@H](C(=O)O)N(c3nc(C(F)(F)F)nc4c3oc3ccccc34)C2)c([C@@]2(F)CCS(=O)(=O)C[C@@H]2C)c1 [Ex. 2.12 of PCT/ EP2022/062496]		4.66	8.10	
COc1ncccc1-c1cnc(O[C@H]2C[C@@H](C(=O)O)N(c3nc(C(F)(F)F)nc4c3oc3ccccc34)C2)c(N2CCOC3(COC3)[C@@H]2C)c1 [Ex. 3.14 of PCT/EP2022/062 480]	8.00	5.11	7.59	
C[C@@H]1N(c2cccnc2O[C@H]2C[C@@H](C(=O)O)N(c3nc(C(F)F)nc4c3oc3ccccc34)C2)CCOC12COC2 [Ex. 4.04 of PCT/EP2022/062 480]	6.41	< 4.78	7.11	
Cc1nc(N2CCC[C@H]2C(=O)O)c2oc3ccccc3c2n1 [Example 15, reference compound]				pIC50 [1, 9]: < 4.77; pIC50 [2, 10]: < 4.77
Cc1nc(N2C[C@@H](Cc3nn[nH]n3)C[C@H]2C(=O)O)c2oc3ccccc3c2n1 [Example 25, reference compound]				pIC50 [1, 9]: < 4.77; pIC50 ([1]; THP-1, running text, read-out: THP1(vir) IC50): 4.77; pIC50 [2, 10]: < 4.77; pIC50 (cGAS [8]): > 7.00
Cc1nc(N2C[C@@H](CC(=O)Nc3ccncc3)C[C@H]2C(=O)O)c2oc3ccccc3c2n1 [Example 28, reference compound]				pIC50 [1, 9]: < 4.49
Cc1nc(N2C[C@@H](Nc3ccncc3)C[C@H]2C(=O)O)c2oc3ccccc3c2n1 [Example 38, reference compound]				pIC50 [1, 9]: < 4.77; pIC50 [2, 10]: < 4.77
CC(C)(C(=O)N[C@H]1C[C@@H](C(=O)O)N(c2nc(C(F)(F)F)nc3c2oc2ccccc23)C1)c1cn[nH]c1 [Example 58, reference compound]				pIC50 [1, 9]: 4.68
COC(=O)[C@@H]1C[C@H](Oc2ncccc2N2CCOC3(COC3)[C@@H]2C)CN1c1nc(C(F)F)nc2c1oc1ccccc12 [P01 of PCT/EP2022/062 480]	6.45	4.58	5.88	pIC50 (cGAS [7]): < 5.00
C#Cc1cnc(O[C@H]2C[C@@H](C(=O)OC)N(c3nc(C(F)(F)F)nc4c3oc3ccccc34)C2)c([C@@]2(F)CCS(=O)(=O)C[C@@H]2C)c1 [P01 of PCT/EP2022/062 496]	7.96	< 4.78	7.17	
COC(=O)[C@@H]1C[C@H](Oc2ncc(Cl)cc2[C@@]2(F)CCS(=O)(=O)C[C@@H]2C)CN1c1nc(C(F)F)nc2c1oc1ccccc12 [P02 of PCT/ EP2022/062496]	7.54	< 4.78	6.85	pIC50 (cGAS [7]): < 5.00
COC(=O)[C@@H]1C[C@H](Oc2ncc(Br)cc2N2CCOC3(COC3)[C@@H]2C)CN1c1nc(C(F)(F)F)nc2c1oc1ccccc12 [P02 of PCT/EP2022/062 480]	6.35	4.77	5.27	pIC50 (cGAS [7]): < 5.00
COC(=O)[C@@H]1C[C@H](Oc2ncc(Cl)cc2[C@@]2(OC)CC(C)(C)S(=O)(=O)C[C@@H]2C)CN1c1nc(C(F)F)nc2c1oc1ccccc12 [P03 of PCT/ EP2022/062496]	6.69	4.69	5.70	
C#Cc1cnc(O[C@H]2C[C@@H](C(=O)OC)N(c3nc(C(F)(F)F)nc4c3oc3ccccc34)C2)c(N2CCOC3(COC3)[C@@H]2C)c1 [P03 of PCT/EP2022/062 480]	6.73	4.64	5.96	
COC(=O)[C@@H]1C[C@H](Oc2ncc(-c3cccnc3OC)cc2N2CCOC3(COC3)[C@@H]2C)CN1c1nc(C(F)(F)F)nc2c1oc1ccccc12 [P04 of PCT/EP2022/062 480]	7.17	< 4.78	5.56	pIC50 (cGAS [7]): < 5.00
